Data taken from publication PMC6718988, “Bioactivity and Bactericidal Mechanism of Histidine-Rich β-Hairpin Peptide Against Gram-Negative Bacteria” (International Journal of Molecular Sciences, 2019).
Converted amounts (≈) assume the structure as drawn. Where a SMILES comes first, the peptide text is derived from it. [ ]: non-standard residue; d: D form.

How the values were obtained:
Gram-negative bacteria = assay: MICs against Gram-negative strains (geometric mean, range); format: cell-based; conditions: for geometric mean MIC: read-out: MBC (GM), geometric mean of MICs, Gram (−)
Experimental: (§1) The minimum inhibitory concentration (MIC) was measured using a broth microdilution method to determine the in vitro antimicrobial activity of the peptides. Bacteria were inoculated into MHB and incubated overnight at 37 °C until the bacteria were in log phase growth. Next, we corrected the bacterial concentration to approximately 1 × 10^5 CFU/mL using MHB. The peptides were added to 96-well plates containing 0.01% acetic acid and 0.2% bovine serum albumin at final concentrations ranging from 0.25 to 128 μM. After incubation at 37 °C for 24 h, the absorbance was measured at 492 nm using a microplate reader (Tecan GENios F129004, Tecan, Austria). Broth containing microbes and […] were used as positive and negative controls, respectively. The lowest peptide concentration with no increase in absorbance compared to that of the negative control was defined as the MIC. The experiments were independently performed three times.

[1] = test system: methicillin-resistant S. aureus ATCC43300; assay: microbe, parasite or virus in culture; conditions: ATCC43300, 24 h
Experimental: as §1

S. epidermidis ATCC12228 = assay: microbe, parasite or virus in culture; conditions: ATCC12228, 24 h
Experimental: as §1

E. coli K88 = assay: microbe, parasite or virus in culture
Experimental: as §1

E. coli ATCC25922 = assay: microbe, parasite or virus in culture; conditions: ATCC25922, 24 h
Experimental: as §1

E. coli UB1005 = assay: microbe, parasite or virus in culture; conditions: UB1005, 24 h
Experimental: as §1

E. coli K99 = assay: microbe, parasite or virus in culture
Experimental: as §1

S. aureus ATCC29213 = assay: microbe, parasite or virus in culture; conditions: ATCC29213, 24 h
Experimental: as §1

S. pullorum C7913 = assay: microbe, parasite or virus in culture
Experimental: as §1

P. aeruginosa ATCC27853 = assay: microbe, parasite or virus in culture; conditions: ATCC27853, 24 h
Experimental: as §1

[2] = LPS binding assay (BODIPY-TR-cadaverine displacement); parameters: species or system E. coli; conditions: peptide concentration higher than 4 μM; 50 μg/mL LPS, 5 μg/mL BODIPY-TR cadaverine, Tris 50 mM pH 7.4; 100% = 10 μg/mL polymyxin B
Experimental: The abilities of the antimicrobial peptides to bind LPS were determined using the fluorescent dye BODIPY-TR-cadaverine (BC) substitution method. LPS (50 μg/mL) from E. coli O111:B4 was incubated with BC (5 μg/mL) in Tris buffer (50 mm, pH 7.4) for 4 h. Next, 50 μL of various concentrations of peptides (final concentration of 1–64 μM) and 50 μL of LPS-BC mixture were added to 96-well plates, and the fluorescence was measured using a fluorescence spectrophotometer (Infinite 200 pro, Tecan, China) at an excitation wavelength of 580 nm and an emission wavelength of 620 nm. Each test was performed three times. The values were converted to %∆F (AU) using the following equation:%ΔF (AU) = [(Fobs − F0)/(F100 − F0)] × 100 where Fobs is the fluorescence value measured in the presence of the peptide, F0 is the initial fluorescence of LPS with BC without the addition of peptides, F100 is the fluorescence value produced by adding 10 μg/mL polymyxin B.

[3] = RP-HPLC retention time as measure of hydrophobicity; format: physicochemical; conditions: analytical Kromasil C18 column 4.6 mm × 250 mm, 5.0 μm, acetonitrile, flow 1.0 mL/min, used as measure of hydrophobicity
Experimental: The hydrophobicities of the peptides in solution were reliably mirrored by their high-performance liquid chromatography (HPLC)retention times. The retention times for peptide HI2, HW2, HV2, HF2, and PG-1 were 11.13, 10.55, 12.20, 18.06 and 12.56 min, respectively, indicating the following hydrophobic order: HF2 > PG-1 > HV2 > HI2 > HW2(Table 1).
The designed peptides were synthesized and purified by GL Biochem (Shanghai, China). Acetonitrile was used on an analytical Kromasil C18 column (4.6 mm × 250 mm, 5.0 μm, LC 3000, Beijing, China), and the purity of the peptides was determined to be greater than 95% via reversed-phase high-performance liquid chromatography (RP-HPLC) with a flow rate of 1.0 mL/min. The experimental molecular weights of the peptides were evaluated via ESI-MS analysis, and these values were very close to the calculated masses. Next, the peptides were dissolved in deionized water at a concentration of 2.56 mM, and the peptide solutions were stored at −20 °C.

[4] = test system: human red blood cells (hRBCs); assay: Hemolytic activity; conditions: 1 h, OD 570 nm
Experimental: Briefly, collected human red blood cells (hRBCs) were washed three times with PBS (pH 7.4) and diluted to 1% in PBS. Next, equal volumes of blood cells were mixed with different peptide concentrations in 96-well plates followed by incubated at 37 °C for 1 h. The mixtures were centrifuged (1000 g, 5 min), and the supernatants were transferred to 96-well plates to measure the optical density (OD) at 570 nm. Untreated blood cells were used as negative controls, and 0.1% Triton X-100-treated blood cells were used as positive controls. The minimum peptide concentration corresponding to 5% hemolytic activity was defined as the minimal hemolytic concentration (MHC). These assays were independently repeated three times.

[5] = test system: Gram-positive and Gram-negative bacteria; conditions: 24 h
Experimental: as §1

Gram-positive bacteria = conditions: 24 h
Experimental: as §1

[6] = Salmonella enterica, PULLORUM, 24 h

SMILES	geometric mean MIC (Gram-negative bacteria)	MIC ([1]; Staphylococcus aureus)	MIC (S. epidermidis ATCC12228; Staphylococcus epidermidis)	MIC (E. coli K88; Escherichia coli, K88, 24 h)	MIC (E. coli ATCC25922; Escherichia coli)	MIC (E. coli UB1005; Escherichia coli)	MIC (E. coli K99; Escherichia coli, K99, 24 h)	MIC (S. aureus ATCC29213; Staphylococcus aureus)	MIC (S. pullorum C7913; [6])	MIC (P. aeruginosa ATCC27853; Pseudomonas aeruginosa)	further results
CC(C)(O/N=C(\C(=O)N[C@@H]1C(=O)N2C(C(=O)[O-])=C(C[n+]3ccccc3)CS[C@H]12)c1csc(N)n1)C(=O)O [Ceftazidime]	1.12 µM	16 µM (≈ 8.75 µg/mL)	16 µM (≈ 8.75 µg/mL)	1 µM (≈ 0.547 µg/mL)	2 µM (≈ 1.09 µg/mL)	1 µM (≈ 0.547 µg/mL)	0.5 µM (≈ 0.273 µg/mL)	16 µM (≈ 8.75 µg/mL)	1 µM (≈ 0.547 µg/mL)	2 µM (≈ 1.09 µg/mL)	–
CNC(C)C1CCC(N)C(OC2C(N)CC(N)C(OC3OCC(C)(O)C(NC)C3O)C2O)O1 (stereo not drawn) [Gentamicin]	0.79 µM	8 µM (≈ 3.82 µg/mL)	1 µM (≈ 0.478 µg/mL)	1 µM (≈ 0.478 µg/mL)	1 µM (≈ 0.478 µg/mL)	0.5 µM (≈ 0.239 µg/mL)	0.5 µM (≈ 0.239 µg/mL)	1 µM (≈ 0.478 µg/mL)	1 µM (≈ 0.478 µg/mL)	1 µM (≈ 0.478 µg/mL)	–
N=C(N)NCCC[C@H](NC(=O)[C@H](CCCNC(=N)N)NC(=O)[C@H](Cc1ccccc1)NC(=O)[C@H](Cc1c[nH]cn1)NC(=O)[C@H](Cc1ccccc1)NC(=O)[C@H](Cc1c[nH]cn1)NC(=O)[C@H](Cc1ccccc1)NC(=O)CNC(=O)[C@H]1CCCN1C(=O)[C@H](Cc1ccccc1)NC(=O)[C@H](Cc1c[nH]cn1)NC(=O)[C@H](Cc1ccccc1)NC(=O)[C@H](Cc1c[nH]cn1)NC(=O)[C@H](Cc1ccccc1)NC(=O)[C@H](CCCNC(=N)N)NC(=O)[C@@H](N)CCCNC(=N)N)C(N)=O [HF2] (H-RRFHFHF[dP]GFHFHFRR-NH2; N-terminus assumed)	–	–	–	–	–	–	–	–	–	–	LPS binding ability relative to binding activity of polymyxin B [2]: higher than 60%; MBC (GM), geometric mean of MICs, Gram (−) (Gram-negative bacteria; Gram-negative strains, 256 μM used where no activity at 128 μM): 8.00 µM; Retention Time [3]: 18.06 min; hemolysis rate ([4]; at the highest concentration (128 μM), 1% hRBC in PBS, 37 °C, 0.1% Triton X-100 positive control): 30.46%; MHC, minimum hemolytic concentration ([4]; concentration causing 5% hemolysis of hRBC, 1% hRBC in PBS pH 7.4, 37 °C, repeated three times): 16 µM; MBC (GM), geometric mean of MICs, Gram (+,−) [5]: 8.64 µM; MBC (GM), geometric mean of MICs, Gram (+) (Gram-positive bacteria): 10.08 µM; MIC [1]: 4 µM (≈ 8.91 µg/mL); MIC (S. epidermidis ATCC12228): 4 µM (≈ 8.91 µg/mL); MIC (E. coli K88; E. coli K88, MHB, about 1 × 10^5 CFU/mL, 37 °C, 24 h, three independent experiments): 2 µM (≈ 4.46 µg/mL); MIC (E. coli ATCC25922): 4 µM (≈ 8.91 µg/mL); MIC (E. coli UB1005): 8 µM (≈ 17.8 µg/mL); MIC (E. coli K99; E. coli K99, MHB, about 1 × 10^5 CFU/mL, 37 °C, 24 h, three independent experiments): 4 µM (≈ 8.91 µg/mL); MIC (S. aureus ATCC29213): 64 µM (≈ 143 µg/mL); MIC (S. pullorum C7913; C7913, 24 h): 4 µM (≈ 8.91 µg/mL); MIC (P. aeruginosa ATCC27853): >128 µM
